Experimental data taken from paper PMC9376960, “Ruthenium(II)–Tris-pyrazolylmethane Complexes Inhibit Cancer Cell Growth by Disrupting Mitochondrial Calcium Homeostasis” (Journal of Medicinal Chemistry, 2022).

Legend:
[1] = Solubility in water (D2O) by 1H NMR; format: physicochemical; settings: D2O, 21°C; sum of chloro and aquo complex after 2 h; 1H NMR, Me2SO2 standard
Procedure: A suspension of the selected ruthenium complex (3–5 mg) in a D2O solution (0.7 mL) containing Me2SO2 as the internal standard[115] (3.36 × 10^–3 M) was vigorously stirred at 21 °C for 2 h. The resulting saturated solution was filtered over celite, transferred into an NMR tube, and analyzed by ^1H NMR and ^31P NMR spectroscopy (delay time = 3 s; number of scans = 20). The concentration (solubility) was calculated by the relative integral (starting complex + aquo complex, C^βH signal in the ^1H spectrum) with respect to Me2SO2 (δ/ppm = 3.14). NMR data are given in the Supporting Information (Figures S36–S47).

[2] = Octanol/water partition coefficient, shake-flask, UV-vis; format: physicochemical
Procedure: Partition coefficients (Pow); IUPAC: […] A stock solution of the selected ruthenium compound (ca. 2 mg) was prepared by first adding MeOH (50 μL, to help solubilization), followed by octanol-saturated water (2.5 mL). The solution was diluted with octanol-saturated water (ca. 1:3 v/v ratio, cRu ≈ 10^-4 M, so that 1.5 ≤ A ≤ 2.0 at λmax), and its UV-vis spectrum was recorded (Aaq^0). An aliquot of the solution (Vaq = 1.2 mL) was transferred into a test tube, and water-saturated octanol (Vorg = Vaq = 1.2 mL) was added. […] The UV-vis spectrum of the aqueous phase was recorded (Aaq^f), and the partition coefficient was calculated as Pow = ([…], where […] are the absorbances in the aqueous phase before and after partition with the organic phase, respectively.[118] For 1, an inverse procedure was followed, starting from a solution of the compound in water-saturated octanol. The partition coefficient was calculated as Pow = Aorg^f/(Aorg^0 - Aorg^f), where Aorg^0 and Aorg^f are the absorbances in the organic phase before and after partition with the aqueous phase, respectively. The wavelength of the maximum absorption of each compound (280-380 nm range) was used for UV-vis quantitation. The procedure was repeated three times for each sample (from the same stock solution); the results are given as mean ± standard deviation (Table 2).

[3] = Stability and chloride/water exchange in D2O (NMR); format: physicochemical; settings: for Aquo species % in D2O after 48h: 48 h at 37 °C; for residual complex % in D2O: after 48 h at 37 °C, sum of chloro and aquo complexes; for Aquo species % in D2O at t0: t0 = after 2 h stirring in D2O
Procedure: The same samples prepared at point (a) were used in this experiment, apart from complex 1 that was dissolved in DMSO-d6/D2O 4:1 v/v solution (0.7 mL; [Ru] = approx. […]) containing Me2SO2 as the standard.[115] After ^1H and ^31P{^1H} NMR analyses described above at point (a) (time = t0), samples were heated at 37 °C for 48 h. After cooling to room temperature, ^1H and ^31P NMR spectra were recorded. The percentage of starting complex + related aquo complex was calculated by the relative integral (C^βH signal in the ^1H spectrum) with respect to Me2SO2 (c = 3.3 × 10^–3 mol·L^–1; δ/ppm = 3.14 in D2O; δ/ppm = 2.95 in DMSO-d6/D2O 4:1 v/v), see Table 2 and S1.

[4] = Stability and speciation in deuterated cell culture medium (DMEM-d/DMSO-d6, NMR); format: physicochemical; settings: for Aquo species % in DMEM-d/DMSO-d6 after 24h: 37 °C; for residual complex % in DMEM-d/DMSO-d6: after 24 h at 37 °C, sum of chloro and aquo complexes
Procedure: Powdered DMEM cell culture medium (1000 mg/L glucose and L-glutamine, without sodium bicarbonate and phenol red; D2902; Sigma-Aldrich) was dissolved in D2O (10 mg/mL), according to the manufacturer’s instructions. The solution of deuterated cell culture medium (“DMEM-d”) was treated with Me2SO2 (6.6 × 10^–3 M) and NaH2PO4/Na2HPO4 (0.10 M, pD = 7.5)[120]−[122] and then stored at 4 °C under N2. The selected ruthenium compound (2–3 mg) was dissolved in DMSO-d6 (0.14 mL; 0.18 mL for 4) and then diluted with DMEM-d up to 0.75 mL total volume (cRu ca. 4 × 10^–3 M). The mixture was stirred for 30 min, then filtered over celite, and transferred into an NMR tube. The resulting yellow solution was analyzed by ^1H and ^31P NMR (delay time = 3 s; number of scans = 20) and then heated at 37 °C for 24 h. After cooling to room temperature, NMR analyses were repeated. Compound 1 was instead dissolved in a DMSO-d6/DMEM-d 4:1 v/v solution (0.7 mL; [Ru] = approx. 3 × 10^–3 M) containing Me2SO2 as the internal standard.[115] The percentage of the starting complex + related aquo complex was calculated by the relative integral with respect to Me2SO2 (δ/ppm = 3.16 in DMSO-d6/DMEM-d 1:4 and 1:3 v/v; δ/ppm = 2.95 in DMSO-d6/DMEM-d 4:1 v/v).

518A2 = assay: MTT antiproliferative assay; format: cell-based, human; settings: 72 h, mean ± SD
Procedure: (§1) All of the cell lines were cultivated in DMEM medium (high glucose 4.5 g L^–1, PAA, Pasching, Austria) supplemented with gentamycin (50 μg mL^–1, Serva, Heidelberg, Germany) and 10% heat-inactivated fetal bovine serum (PAA). The medium for MRC5pd30 cells was further supplemented by 1% nonessential amino acids (Sigma-Aldrich, Prague, Czech Republic). All cells were cultured as adherent monolayers in a humidified incubator at 37 °C in a 5% CO2 atmosphere and subcultured twice a week with an appropriate plating density.
(§2) In vitro antiproliferative activity of Ru complexes was determined by the MTT or, alternatively, SRB assay as already described,[84] after 72 h of incubation of cells with various concentrations of the Ru complex. The reported IC50 values are an average of three independent experiments, each consisting of three replicates per concentration.

HCT116 [5] = assay: MTT antiproliferative assay; format: cell-based, human; settings: 72 h, mean ± SD
Procedure: as §1, §2

HeLa = assay: MTT antiproliferative assay; format: cell-based, human; settings: 72 h, mean ± SD
Procedure: as §1, §2

MCF-7 = assay: MTT antiproliferative assay; format: cell-based, human; settings: 72 h, mean ± SD
Procedure: as §1, §2

RD = assay: MTT antiproliferative assay; format: cell-based, human; settings: 72 h, mean ± SD
Procedure: as §1, with “density. In vitro antiproliferative activity of Ru complexes was determined by the MTT or, alternatively, SRB assay as already described,[84] after 72 h of incubation of cells with various concentrations of the Ru complex. The reported IC50 values are an average of three independent experiments, each consisting of three replicates per concentration.” for “density.”

MRC5pd30 = assay: MTT assay on noncancerous cells; format: cell-based, human; settings: 72 h, mean ± SD
Procedure: as §1, §2

[6] = system: cancer cell lines (MCF-7, HeLa, 518A2, HCT116, RD) vs noncancerous MRC-5pd30; assay: MTT panel: average IC50 of cancer cell lines and selectivity index; format: cell-based, human; settings: for SI (selectivity index): IC50 for noncancerous MRC-5pd30 vs the average IC50 value of cancer cell lines; for IC50: average of IC50 values related to cancer cell lines
Procedure: as §2

HCT116 [7] = assay: SRB antiproliferative assay; format: cell-based, human; settings: SRB test, 72 h; mean ± SD
Procedure: as §2

HCT116 cells = assay: Cellular uptake of Ru (ICP-MS); format: cell-based, human; settings: HCT116, 15 μM, 24 h; mean ± SEM
Procedure: In these experiments, 1 × 10^6 HCT116 cells were seeded on 100 mm Petri dishes. After overnight preincubation in a drug-free medium, the cells were treated with the Ru complexes (15 μM) for 24 h. Afterward, the cells were extensively washed with PBS (37 °C), detached using 0.25% trypsin, washed twice with ice-cold PBS, and counted by an automatic cell counter. The cell pellets were digested using a microwave acid (HCl) digestion system (CEM Mars). The quantity of Ru taken up by the cells was determined by inductively coupled plasma mass spectrometry (ICP-MS). All experiments were carried out in triplicate.

[8] = design: method as in doi:10.1021/acs.organomet.9b00813; settings: UV-Vis measurements; cited from earlier work

Row | Substance | solubility [1] | log Pow [2] | Aquo species % in D2O after 48h [3] [%] | residual complex % in D2O [3] [%] | Aquo species % in D2O at t0 [3] [%] | IC50 (518A2) [µM] | IC50 (HCT116 [5]) [µM] | IC50 (HeLa) [µM] | IC50 (MCF-7) [µM] | IC50 (RD) [µM] | IC50 (MRC5pd30) [µM] | SI (selectivity index) [6] | IC50 [6] [µM] | IC50 (HCT116 [7]) [µM] | Accumulation of ruthenium, ng Ru/10^6 cells (HCT116 cells) [ng Ru/10^6 cells] | Aquo species % in DMEM-d/DMSO-d6 at t0 ([4]; DMSO-d6-DMEM-d 1:4 v/v) [%] | Aquo species % in DMEM-d/DMSO-d6 after 24h ([4]; DMSO-d6-DMEM-d 1:4 v/v) [%] | residual complex % in DMEM-d/DMSO-d6 ([4]; DMSO-d6/DMEM-d 1:4 v/v) [%] | further results
1 | [RuCl(κ^3-tpm)(PPh3){NCHNHC(CH)4C}]Cl [compound 4] | 2.4 10^–3 mol·L^–1 | 0.58 ± 0.06 | 70 | 100 | 67 | 35 ± 4 | 25 ± 2 | 36 ± 1 | 37 ± 7 | 25 ± 3 | 56.6 ± 0.7 | 1.8 | 31.6 ± 3.4 | 21 ± 3 | 54.9 ± 1.3 | – | – | – | Aquo species % in DMEM-d/DMSO-d6 at t0 ([4]; DMSO-d6-DMEM-d 1:3 v/v): 0%; Aquo species % in DMEM-d/DMSO-d6 after 24h ([4]; DMSO-d6-DMEM-d 1:3 v/v): 59%; residual complex % in DMEM-d/DMSO-d6 ([4]; DMSO-d6/DMEM-d 1:3 v/v): 93%
2 | [Fe2Cp2(CO)(μ-CO){μ-η^1:η^3-C(3-C6H4OH)CHCNMe2}]CF3SO3 [[FeFe]^+[CF3SO3]^–] | – | – | – | – | – | – | – | – | – | – | – | – | – | – | – | – | – | – | LogPow [8]: −0.34
3 | [RuCl(κ^3-tpm)(PPh3){NNH(CH)3}]Cl [compound 5] | 3.4 10^–3 mol·L^–1 | –0.05 ± 0.05 | 88 | 100 | 25 | 31 ± 3 | 30 ± 2 | 54 ± 6 | 32 ± 5 | 23 ± 2 | 63 ± 4 | 1.9 | 34 ± 3.6 | 20 ± 3 | 58.4 ± 3.0 | 0 | 50 | 98 | –
4 | [RuCl(κ^3-tpm)(PPh3)(NCMe)]Cl [compound 2] | 4.5 10^–3 mol·L^–1 | –0.33 ± 0.07 | 92 | 89 | 80 | 26 ± 4 | 25 ± 2 | 53 ± 4 | 32 ± 4 | 26 ± 5 | 76 ± 1 | 2.4 | 32.4 ± 3.8 | 16 ± 1 | 29.6 ± 2.9 | 0 | 59 | 51 | –
5 | [RuCl(κ^3-tpm)(PPh3){N(CH)3C(OH)CH}]Cl [compound 6] | 1.9 10^–3 mol·L^–1 | – | 99 | 100 | 15 | 38 ± 8 | 31 ± 2 | 54 ± 14 | 46 ± 7 | 38 ± 6 | 82 ± 4 | 2.0 | 41.4 ± 7.4 | 20 ± 2 | 27.2 ± 1.1 | 9 | 70 | 100 | –
